“Also recorded” adds a separate entry of the source. Where two headings read alike, the source gives them in different places.
Columns and labels:
dopamine 2 (D2) receptor = target: T1, dopamine 2 (D2) receptor (Rattus norvegicus, UniProt P61169); assay: Affinity for dopamine 2 receptor (tritiated spiperone binding); parameters: species or system Wistar rats; details: rat corpus striatum synaptosomes; [3H]spiperone 0.2 nM; 37° C., 20 min
T1 construct: A synaptosome fraction was separated from corpus striatum; from tissue; host or cells: corpus striatum of 9-10 week-old Wistar rats, synaptosome fraction
T1 sequence (P61169 whole entry): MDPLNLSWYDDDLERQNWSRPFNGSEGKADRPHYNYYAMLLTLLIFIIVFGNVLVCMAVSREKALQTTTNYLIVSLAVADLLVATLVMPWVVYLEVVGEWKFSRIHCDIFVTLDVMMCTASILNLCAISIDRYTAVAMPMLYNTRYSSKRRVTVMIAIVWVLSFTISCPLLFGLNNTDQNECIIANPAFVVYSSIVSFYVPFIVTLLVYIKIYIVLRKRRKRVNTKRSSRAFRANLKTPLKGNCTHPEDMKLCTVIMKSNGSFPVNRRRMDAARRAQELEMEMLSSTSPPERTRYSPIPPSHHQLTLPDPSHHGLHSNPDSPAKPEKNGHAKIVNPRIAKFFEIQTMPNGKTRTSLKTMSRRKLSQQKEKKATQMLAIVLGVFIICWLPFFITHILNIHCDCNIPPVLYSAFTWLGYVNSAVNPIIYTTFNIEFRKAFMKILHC
Experimental: Affinity for dopamine 2 receptor
A specific binding of dopamine 2 (D2) receptor was tested according to the method described in Eur. J. Pharmacol. 46, 377 (1977).
A synaptosome fraction was separated from corpus striatum of 9-10 week-old Wistar rats, and suspended in 50 mM Tris-HCl buffer (pH 7.1) containing 120 mM sodium chloride, 5 mM potassium chloride, 2 mM calcium chloride, 1 mM magnesium chloride, 10 μM pargyline and 0.1% ascorbic acid for the experiment.
The test compound at several concentrations and tritiated spiperone (final concentration 0.2 nM) were added to the synaptosome suspension, and each mixture was incubated at 37° C. for 20 minutes. After the incubation, the mixture was filtered with suction through Whatman GF/B (trade mark) glass filter. The filter was washed with 50 mM Tris-HCl buffer (pH 7.7), and the radioactivity of the filter was measured by a liquid scintillation counter. Non-specific binding was determined in the presence of 10^-4 M (±)-sulpiride. The concentration necessary for 50% inhibition (IC50) was determined on a graph, and inhibition constant (Ki value) was calculated.

[1] = tested on: apomorphine-induced hyperactivity; assay: Anti-apomorphine action (in mouse); type: in vivo, male dd mice; details: oral, 60 min before 0.5 mg/kg s.c. apomorphine hydrochloride, movement lowered by 50%
Experimental: Anti-apomorphine action (in mouse)
Male dd mice at 3 per group were used for the experiment. The test compound was orally administered to the mice, and 60 minutes later, 0.5 mg/kg of apomorphine hydrochloride was subcutaneously administered. the movement for 20 minutes from immediately after the administration of apomorphine hydrochloride was measured using Valimex (Columbus, USA). Each group was tested four times, and the amount of the test compound necessary to lower the movement by 50% than that of a control group was calculated from a graph and taken as ED50.

[2] = target: T2, serotonin 1A (5-HT1A) receptor (Rattus norvegicus, UniProt P19327); assay: Affinity for serotonin 1A receptor (tritiated 8-OH-DPAT binding); parameters: species or system Wistar rats; details: rat hippocampus crude synaptosomes; [3H]8-OH-DPAT 0.2 nM; 37° C., 12 min
T2 construct: A crude synaptosome fraction was separated from hippocampus; from tissue; host or cells: hippocampus of 9-10 week-old Wistar rats, crude synaptosome fraction
T2 sequence (P19327 1-422): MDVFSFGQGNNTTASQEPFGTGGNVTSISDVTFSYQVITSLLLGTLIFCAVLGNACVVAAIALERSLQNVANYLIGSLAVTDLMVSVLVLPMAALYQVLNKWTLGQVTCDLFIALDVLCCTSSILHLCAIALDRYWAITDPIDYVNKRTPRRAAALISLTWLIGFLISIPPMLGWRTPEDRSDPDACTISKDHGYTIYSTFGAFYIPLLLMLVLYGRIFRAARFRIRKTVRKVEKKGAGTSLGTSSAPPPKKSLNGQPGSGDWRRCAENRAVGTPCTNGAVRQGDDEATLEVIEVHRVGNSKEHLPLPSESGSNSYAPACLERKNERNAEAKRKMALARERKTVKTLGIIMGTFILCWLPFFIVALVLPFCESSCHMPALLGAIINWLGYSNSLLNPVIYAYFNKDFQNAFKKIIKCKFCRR
Experimental: Affinity for serotonin 1A receptor
A specific binding of serotonin 1A (5-HT1A) receptor was tested according to the method described in J. Neurochem. 44, 1685 (1985).
(§1) A crude synaptosome fraction was separated from hippocampus of 9-10 week-old Wistar rats, and suspended in 50 mM Tris-HCl buffer (pH 7.4) containing 1 mM manganese chloride for the experiment. The test compound at several concentrations and tritiated 8-hydroxy-2-dipropyl-aminotetralin(8-OH-DPAT, final concentration 0.2 nM) were added to the synaptosome suspension, and each mixture was incubated at 37° C. for 12 minutes. After the incubation, the mixture was filtered with suction through Whatman GF/B (trade mark) glass filter. The filter was washed with 50 mM Tris-HCl buffer (pH 7.7), and the radioactivity of the filter was measured by a liquid scintillation counter. Non-specific binding was determined in the presence of 10^-5 M serotonin (5-HT). The concentration necessary for 50% inhibition (IC50) was determined on a graph, and inhibition constant (Ki value) was calculated.

[3] = tested on: ergometrine-induced head-twitches; assay: Anti-ergometrine action (head-twitch); type: in vivo, male ddY mice; details: Mus musculus; oral, 60 min before 20 mg/kg i.p. ergometrine maleate; head-twitch vanished, Probit
Experimental: Male ddY mice at 12 per group were used for the experiment. The test compound was orally administered to the mice, and 60 minutes later, 20 mg/kg of ergometrine maleate was intraperitoneally administered. The amount of the test compound necessary to vanish the head-twitch reaction for 10 minutes from immediately after the administration of ergometrine maleate was calculated as ED50 value by Probit method.

[4] = target: T3, serotonin 2 (5-HT2) receptor (Rattus norvegicus, UniProt P14842); assay: Affinity for serotonin 2 receptor (tritiated ketanserin binding); parameters: species or system Wistar rats; details: rat hippocampus crude synaptosomes; [3H]ketanserin 0.2 nM; 37° C., 20 min
T3 construct: A crude synaptosome fraction was separated from hippocampus; from tissue; host or cells: hippocampus of 9-10 week-old Wistar rats, crude synaptosome fraction
T3 sequence (P14842 whole entry): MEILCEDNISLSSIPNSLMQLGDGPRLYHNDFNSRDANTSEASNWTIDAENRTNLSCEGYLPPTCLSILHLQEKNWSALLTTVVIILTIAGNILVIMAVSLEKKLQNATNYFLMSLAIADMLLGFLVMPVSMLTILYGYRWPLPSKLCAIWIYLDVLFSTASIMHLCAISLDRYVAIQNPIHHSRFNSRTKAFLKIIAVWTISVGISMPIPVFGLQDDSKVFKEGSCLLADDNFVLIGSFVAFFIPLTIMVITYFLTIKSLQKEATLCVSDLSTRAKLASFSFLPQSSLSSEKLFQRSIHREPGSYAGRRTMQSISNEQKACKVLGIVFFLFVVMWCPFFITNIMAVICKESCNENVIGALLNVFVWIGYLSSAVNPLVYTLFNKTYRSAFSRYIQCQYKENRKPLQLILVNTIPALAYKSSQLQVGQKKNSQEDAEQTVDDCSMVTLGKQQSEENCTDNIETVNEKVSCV
Experimental: Affinity for serotonin 2 receptor
A specific binding of serotonin 2 (5-HT2) receptor was tested according to the method described in Mol. Pharmacol. 21, 301 (1981).
as §1, with “7.7)” for “7.4) containing 1 mM manganese chloride”, “concentration” for “concentrations”, “ketanserin (final” for “8-hydroxy-2-dipropyl-aminotetralin(8-OH-DPAT, final”, “20” for “12”, “mianserin.” for “serotonin (5-HT).”, “value )” for “value)”

[5] = tested on: negative symptoms, EPS, depression and internal secretion in patients; details: cited from earlier work
[6] = tested on: catalepsy induced by haloperidol; details: preclinical; cited from earlier work
D2 = details: cited from earlier work

SMILES	Ki (dopamine 2 (D2) receptor) [nM]	ED50 [1] [mg/kg]	Ki [2] [nM]	ED50 [3] [mg/kg]	Ki [4] [nM]	EPS / side-effects in clinical use [5]	clinical effect on symptoms [5]	effect on catalepsy induced by haloperidol [6]	EPS / side-effects in clinical use ([5]; listed as risperidone)	D2 receptor antagonistic properties (D2)
Cc1sc2c(c1CCN1CCC(c3noc4cc(F)ccc34)CC1)NC(=O)CCC2 [Example 22, 3-(2-(4-(6-fluoro-1,2-benzoxazolyl-3-yl)piperidin-1-yl)ethyl)-2-methyl-4,6,7,8-tetrahydro-5H-thieno[3,2-b]azepin-5-one]	0.52	1.1	15	1.5	0.21	–	–	–	–	–
O=C1CCCc2sc(CCN3CCC(c4noc5cc(F)ccc45)CC3)cc2N1 [Example 15, 2-(2-(4-(6-fluoro-1,2-benzisoxazol-3-yl)piperidin-1-yl)ethyl)-4,6,7,8-tetrahydro-5H-thieno[3,2-b]azepin-5-one]	0.065	0.063	1.6	0.089	0.32	–	–	–	–	–
CC(=O)N1CCc2c(sc(CCN3CCC(c4noc5cc(F)ccc45)CC3)c2C)C1 [Example 42, 6-acetyl-2-(2-(4-(6-fluoro-1,2-benzisoxazol-3-yl)piperidin-1-yl)ethyl)-4,5,6,7-tetrahydro-3-methylthieno[2,3-c]pyridine]	0.23	0.2	1.1	0.19	0.2	–	–	–	–	–
CC(=O)N1CCc2cc(C(=O)CCCN3CCC(c4noc5cc(F)ccc45)CC3)sc2C1 [Example 43, 6-acetyl-2-(4-(4-(6-fluoro-1,2-benzisoxazol-3-yl)piperidin-1-yl)butyryl)-4,5,6,7-tetrahydrothieno[2,3-c]pyridine]	1.5	–	87	–	0.11	–	–	–	–	–
O=C1CCCc2sc(CCN3CCC(c4coc5cc(F)ccc45)CC3)cc2N1 [Example 147, 2-(2-(4-(6-fluorobenzo(b)furan-3-yl)piperidin-1-yl)ethyl)-4,6,7,8-tetrahydro-5H-thieno[3,2-b]azepin-5-one]	0.4	–	0.32	–	0.86	–	–	–	–	–
CCc1c(CCN2CCC(c3coc4ccc(C)cc34)CC2)sc2c1CCN(C(C)=O)C2 [Example 145, 6-acetyl-3-ethyl-2-(2-(4-(5-methylbenzo(b)-furan-3-yl)piperidin-1-yl)ethyl)-4,5,6,7-tetrahydrothieno[2,3-c]pyridine]	3.8	–	0.14	–	2.8	–	–	–	–	–
CCc1c(CCN2CCC(c3coc4cc(F)ccc34)CC2)sc2c1CCN(C(C)=O)C2 [Example 85, 6-acetate-3-ethyl-2-(2-(4-(6-fluorobenzo(b)furan-3-yl)piperidin-1-yl)ethyl)-4,5,6,7-tetrahydro-thieno[2,3-c]pyridine]	0.52	0.79	0.31	0.52	0.38	–	–	–	–	–
CC(=O)N1CCc2c(sc(C)c2CCN2CCC(c3csc4cc(F)ccc34)CC2)C1 [Example 53, 6-acetyl-3-(2-(4-(6-fluorobenzo(b)thiophen-3-yl)piperidin-1-yl)ethyl)-4,5,6,7-tetrahydro-2-methylthieno[2,3-c]pyridine]	0.15	–	3.7	–	0.043	–	–	–	–	–
CCc1c(CCN2CCC(c3csc4cc(F)ccc34)CC2)sc2c1CCN(C(C)=O)C2 [Example 84, 6-acetyl-3-ethyl-2-(2-(4-(6-fluorobenzo-(b)thiophen-3-yl)piperidin-1-yl)ethyl)-4,5,6,7-tetrahydrothieno[2,3-c]pyridine]	0.21	0.73	0.13	0.95	0.18	–	–	–	–	–
Cc1nc2sccn2c(=O)c1CCN1CCC(=C(c2ccc(F)cc2)c2ccc(F)cc2)CC1 [ritanserin]	–	–	–	–	–	reduces the incidence of EPS caused by typical antipsychotic drug therapy	ameliorates negative symptoms	–	–	–
CCc1sc2c(c1CCN1CCC(c3noc4cc(F)ccc34)CC1)CCN(C(C)=O)C2 [Example 32, 6-acetyl-2-ethyl-3-(2-(4-(6-fluoro-1,2-benzisoxazol-3-yl)piperidin-1-yl)ethyl)-4,5,6,7-tetrahydrothieno[2,3-c]pyridine]	0.1	–	54	–	0.086	–	–	–	–	–
O=C1CC2(CCCC2)CC(=O)N1CCCCN1CCN(c2ncccn2)CC1 [buspirone]	–	–	–	–	–	–	improved the depression and EPS caused by haloperidol therapy	reverse catalepsy induced by haloperidol	–	–
Cc1nc2n(c(=O)c1CCN1CCC(c3noc4cc(F)ccc34)CC1)CCCC2 [Risperidone]	–	–	–	–	–	low EPS liability	effective antipsychotic; also recorded: beneficial effects on the negative symptoms of schizophrenia	–	EPS is appeared in high dose; also recorded: side-effect of internal secretion	potent
CCc1c(CCN2CCC(c3nsc4cc(F)ccc34)CC2)sc2c1CCN(C(C)=O)C2 [Example 86, 6-acetyl-3-ethyl-2-(2-(4-(6-fluoro-1,2-benzisothiazol-3-yl)piperidin-1-yl)ethyl)-4,5,6,7-tetrahydrothieno[2,3-c]pyridine]	0.17	0.54	0.59	0.27	0.092	–	–	–	–	–
Cc1ccc2occ(C3CCN(CCc4cc5c(s4)CCCC(=O)N5)CC3)c2c1 [Example 148, 2-(2-(4-(5-methylbenzo(b)furan-3-yl)piperidin-1-yl)ethyl)-4,6,7,8-tetrahydro-5H-thieno[3,2-b]azepin-5-one]	2.3	–	0.24	–	8.6	–	–	–	–	–
CCc1c(CCN2CCC(c3noc4cc(F)ccc34)CC2)sc2c1CCN(C(C)=O)C2 [Example 73, 6-acetyl-2-(2-(4-(6-fluoro-1,2-benzisoxazol-3-yl)piperidin-1-yl)ethyl)-3-ethyl-4,5,6,7-tetrahydrothieno[2,3-c]pyridine]	0.25	0.25	0.16	0.35	0.082	–	–	–	–	–
